Assay results published in US7795244B2, “Penem prodrugs” (priority 2006, dated 2010).
Values after ≈ are worked out from the molar mass of the structure shown. Values joined by “and” are separate entries in the source; they are usually repeats but may differ in a detail not shown here. Equal entries are not always repeated.

Key:
S. pneumoniae 1095 [1] = assay: Murine respiratory tract infection model; settings: Murine respiratory tract infection vs. S. pneumoniae 1095; oral BID for two days from 18 h post-infection; survival day ten; repeat experiments
S. pneumoniae 1095 [2] = assay: Murine acute systemic infection model; settings: Murine acute systemic infection vs. S. pneumoniae 1095; oral BID; survival day four post-infection; repeat experiments
K. pneumoniae 6485 = assay: Murine acute systemic infection model; settings: Murine acute systemic infection vs. K. pneumoniae 6485; oral BID; survival day four post-infection; repeat experiments
[3] = Stability in the presence of porcine pancrelipase (PPE); format: in vitro ADME; settings: pig, porcine pancrelipase (ku-zyme HP) in phosphate buffer, 50 μM substrate, pH 7.4, 37° C.
[4] = test system: porcine pancrelipase (PPE); assay: as above; format: in vitro ADME
[5] = Stability in human intestinal juice (HIJ); settings: pooled human intestinal juice (4 subjects), buffered, pH 7.4
H. influenzae BLNAR = assay: Gerbil otitis media model; settings: Gerbil otitis media vs. H. influenzae BLNAR, oral TID for two days from 18 h post-infection, bacterial levels in middle ear fluid day four, repeat experiments
Equilibrium solubility = format: physicochemical; settings: aqueous buffer, thermodynamic from solid, 25 mM phosphate buffer (pH 5), ambient temperature / 25° C.
Method: Vials containing excess prodrug in phosphate buffer were rotated for up to 48 hours. After the equilibrium period, samples were pulled, filtered through 0.45 μm Gelman Acrodisc Nylon syringe filter and analyzed for drug concentration using HPLC. The HPLC conditions were: Column. C18, SymmetryShield RP, Waters, 4.6×150 mm, 3.5 micron; Mobile phase A: Acetonitrile; Mobile phase B: 0.1% TFA in water; Flow rate, 1 mL/min; Run Time: 30 min Inj. vol. 20 μL; Detection: 210 nm; Dissolving solvent: Acetonitrile/water (50:50 v:v).

[6] = Liver S9 conversion efficiency; format: in vitro ADME, human; settings: liver S9 experiments

In the case of `CCC(CC)C(=O)OCOC(=O)C1=C(S[C@H]2CC[S@@+]([O-])C2)S[C@@H]2[C@@H]([C@@H](C)O)C(=O)N12` [Compound 1, (2-Ethyl-1-oxobutoxy)methyl (5R,6S)-6-[(1R)-1-hydroxyethyl]-7-oxo-3-[[(1R,3S)-tetrahydro-1-oxido-3-thienyl]thio]-4-thia-1-azabicyclo[3.2.0]hept-2-ene-2-carboxylate], the “intrinsic clearance in human intestinal juice (in words)” value is reported as “relatively low intrinsic clearance”, the “HIJ Clint (avg)” value (human, pH 7.4) is reported as 0.07 mL/min and the PD50 (S. pneumoniae 1095 [1]) is reported as 16.4 mg/kg and 12.5 mg/kg and 9.5 mg/kg. The PD50 (S. pneumoniae 1095 [2]) was 12.5 mg/kg and 6.3 mg/kg, the PD50 (K. pneumoniae 6485) was 88.6 mg/kg and 63.4 mg/kg and the half-life at 50 µM ([3]; pH 7.4, ku-zyme Lot 1) was 11.7 ± 3.8 min. The half-life at 50 µM ([3]; pH 7.4, ku-zyme lot 2) was 17.9 min, the “PPE half-life (in words)” value [4] was “relatively long PPE half-life” and the Km [5] was 91 µM. For the same molecule, the ED50 (H. influenzae BLNAR) was 4.5 mg/kg, the ED50 (H. influenzae BLNAR; Haemophilus influenzae, in Meriones unguiculatus, po) was 8.7 mg/kg and the solubility (Equilibrium solubility) was 1210 µg/mL (≈ 2530 µM). For the same molecule, the “conversion to sulopenem (in words)” value [6] was “fully converted to sulopenem”.
